# Test results published in US7544666B2, “NAP derivatives” (Industrial Technology Research Institute, priority 2005, dated 2009).
# Columns and labels:
# [1] = Pharmacokinetics after single subcutaneous dose in rats; type: in vivo; details: rat, 1 mg/kg subcutaneous
# Description: A single dosage of NAP and the NAP derivative of BMEC-NAP0706 were subcutaneously administered to rats respectively, and blood samples were obtained at different time intervals. The blood samples were subjected to LC-MS/MS analysis to measure the concentration of NAP and the NAP derivative. A time-plasma concentration relationship was established and pharmacokinetic parameters were calculated. The procedures are described below.
# Long Evans rats with body weight between 220 to 240 g were obtained from the National Laboratory Animal Center, Taiwan and caged in the laboratory animal housing in the Industrial Technology Research Institute, Taiwan. The Breeding procedure follows the “Guide for the Care and Use of Laboratory Animals” established by the Chinese Society of Laboratory Animal Sciences. The rats were kept on an alternating 12-hour light and 12-hour dark schedule with sufficient feed and water until they reached the body weight between 280 to 300 g.
# Each rat was weighed before the pharmacokinetic examination to estimate its own dosage. The tested drug dissolved in PBS was formulated to achieve the amount of one dosage between 0.28 to 0.32 mL. Each rat was subcutaneously administered with 1 mg/kg of the tested drug. 0.3 mL of blood samples were collected from the saphenous vein in medial thigh of the rat before and 0.25-, 0.5-, 0.75-, 1-, 2-, 4-, 24-hour after administration. Whole blood was centrifuged under 3500 rpm for 10 min and supernatant (serum) was moved to a clean 1.5 mL eppendorf and stored at −80° C.
# Sample pretreatment was as follows: The frozen serum was thawed in an ice bath. One hundred μL of the serum was moved to a clean 1.5 mL eppendorf and 10 μL of internal standard material was added. The mixture was added with 200 μL ACN and mixed again. The sample was centrifuged under 14000 rpm at 4° C. for 10 min, and the supernatant was moved to the other clean eppendorf and dried in a vacuum system at 60° C. for 30 min. The dried sample was dissolved in 900 μL ddH2O. The sample was added to a solid phase extraction column previously activated with methanol and ddH2O. After the sample passed through, the extraction column was washed with ddH2O alone and then ddH2O containing 5% ACN and 0.1% TFA. The sample was dissolved from the extraction column with ACN containing 0.1% TFA and dried under a vacuum system at 60° C. for 1 hour. The dried sample was redissolved with 100 μL of ddH2O containing 50% ACN. The sample was analyzed with HPLC-MS/MS system.
# The sample analysis was as described below. 20 μL of the sample was poured into the HPLC-MS/MS system. The solvent system was applied in gradient partitioning: 90% A (H2O/ACN=98/2, 0.1% F.A.) and 10% B (H2O/ACN=20/80, 0.1% F.A.) at 0-3 min; 10% A and 90% B at 3-6.5 min; 90% A and 10% B again at 6.5-15 min. The flow rate was 0.2 mL/min. The column was ZORBAX C18, 5 μm, 2.1×50 mm (Agilent) and the detector was ABI 4000 Q Trap. Each sample was analyzed for 15 min. The results were compared with the standard calibration curve to estimate the concentration of each sample. All data was statistically analyzed with Excel or WinNonlin.
# Caco-2 cell = experiment: Stability in the Caco-2 cell system; type: in vitro ADME, human; details: 4-hour incubation in Caco-2 Transwell; relative to initial conc. = 100.00 (500 μM)
# Outline: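 Compounds at 500 μM initial concentration were incubated 4 h at 37 °C in HBSS alone or on the apical side of Caco-2 monolayers (cultured 18–26 days, TEER over 350 Ω×cm^2). Apical and basolateral levels were quantified by reverse-phase HPLC at 210 nm against the initial concentration.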
smiles,measurement,setting,value
"CC[C@H](C)[C@H](NC(=O)[C@H](CO)NC(=O)[C@@H](NC(=O)[C@@H]1CCCN1C(=O)[C@H](C)NC(=O)[C@@H](N)CC(N)=O)C(C)C)C(=O)N1CCC[C@H]1C(=O)N[C@@H](CCC(N)=O)C(=O)O [BMEC-NAP, H-NAPVSIPQ-OH, reference compound]",AUC,"[1]; in vivo, sc",55.8 ng·h/mL
same,Cmax,"[1]; in vivo, sc",55.5 ng/mL
same,Tmax,"[1]; in vivo, sc",15 min
same,half-life,"[1]; in vivo, sc, read-out: T½ (converted)",51 min
same,TNAP-max,[1],0.25 h
same,time required to reach the highest concentration,[1],0.25 h
same,Conc. after 4-hour in Caco-2 cells,Caco-2 cell,42.49
